Laboratory results as given in publication PMC10525516, “Novel NADPH Oxidase-2 Inhibitors as Potential Anti-Inflammatory and Neuroprotective Agents” (Antioxidants, 2023).

Columns and labels:
[1] = target: T1, Nox2 (Homo sapiens, UniProt P04839); experiment: Amplex Red/HRP assay of H2O2 production by PMA-activated dHL60 cells; assay type: cell-based; conditions: PMA (1 µM)-activated dHL60 cells, 30 min preincubation; read-out: IC50, inhibition of H2O2 production, Amplex Red Assay
T1 construct: endogenous in cells
T1 sequence (P04839 2-570 limits assumed): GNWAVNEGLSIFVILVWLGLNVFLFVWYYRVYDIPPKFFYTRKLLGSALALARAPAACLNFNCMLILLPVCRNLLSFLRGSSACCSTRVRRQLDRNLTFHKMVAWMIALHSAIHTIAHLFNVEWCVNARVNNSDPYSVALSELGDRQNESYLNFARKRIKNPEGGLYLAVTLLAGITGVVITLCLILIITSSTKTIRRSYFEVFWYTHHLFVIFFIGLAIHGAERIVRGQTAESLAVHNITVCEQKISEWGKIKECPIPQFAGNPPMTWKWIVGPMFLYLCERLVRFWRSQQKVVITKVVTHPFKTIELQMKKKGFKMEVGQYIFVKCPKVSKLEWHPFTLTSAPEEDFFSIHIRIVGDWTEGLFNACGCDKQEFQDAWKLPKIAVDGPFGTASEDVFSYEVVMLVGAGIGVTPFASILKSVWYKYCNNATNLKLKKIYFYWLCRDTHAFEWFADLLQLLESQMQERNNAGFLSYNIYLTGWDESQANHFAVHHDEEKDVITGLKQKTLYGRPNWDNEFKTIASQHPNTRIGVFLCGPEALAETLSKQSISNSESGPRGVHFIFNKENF
T1 sequence (P13498 2-195 partner limits assumed): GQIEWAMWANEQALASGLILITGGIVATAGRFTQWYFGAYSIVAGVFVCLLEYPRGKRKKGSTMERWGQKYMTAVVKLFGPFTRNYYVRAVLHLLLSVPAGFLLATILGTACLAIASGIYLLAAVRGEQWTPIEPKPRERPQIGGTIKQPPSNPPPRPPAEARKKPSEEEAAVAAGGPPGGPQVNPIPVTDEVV
Experimental: Human promyelocytic leukemia HL60 cells (Sigma-Aldrich) were grown in RPMI 1640 medium (Gibco, 11875-093, Billings, MT, USA) supplemented with 10% FBS (Omega Scientific (Tarzana, CA, USA)), 100 units/mL penicillin, and 100 µg/mL streptomycin, and were incubated at 37 °C and 5% carbon dioxide (CO2). For differentiation to neutrophil-like cells, HL60 cells were pelleted and resuspended in fresh media containing 1 µM of all trans-retinoic acid and incubated for four to five days. Nox2 activation was achieved by treating differentiated HL60 (dHL60) cells with 1 µM PMA [24]. Human leukemia monocytic cells, THP-1, were grown in RPMI 1640 medium + GlutaMAX^TM (Gibco, 61870-036) and supplemented with 10% FBS, 10 mM HEPES, and 1 mM sodium pyruvate and incubated at 37 °C in 5% CO2 environment. To induce differentiation into macrophages, THP-1 cells were treated with PMA (100 ng/mL) for 48 h. To test the efficacy of Nox2 inhibitors, treatment was performed with or without the inhibitor, along with PMA [35].
Plate reader-based analyses of the production of O2^•− and H2O2 by PMA-activated dHL60 cells were performed according to a published protocol with minor modifications. Briefly, for the treatment of dHL60 cells with different concentrations of the compounds, 0.5 mL deep-well 96-well plates were used to dispense and store aliquots of their 10 mM DMSO solutions. Using a Multidrop™ PicoIT dispenser (Thermo Scientific), different volumes of the solutions of candidate Nox inhibitors (10 or 50 mM in DMSO) were injected into the bottom of 0.5 mL V-bottom 96-well plates; then, they were sealed with aluminum foil (VWR, Batavia, IL, USA) using a semiautomatic thermal sealer (BT LabSystems, St. Louis, MO, USA) and stored at −20 °C to reduce freeze-thawing the solutions. The plates with inhibitors were allowed to come to room temperature before the addition of the cell suspensions. dHL60 cells were pelleted and resuspended in HBSS (Invitrogen, Waltham, MA, USA) supplemented with 25 mM HEPES (pH 7.4) and 100 µM DTPA to a cell density of 2 × 10^5 cells/mL. dHL60 cells were added to the V-bottom plates at a volume of 210 µL/well. Next, cells were incubated with inhibitors for 30 min at 37 °C in a CO2-free incubator under ambient oxygen and then transferred to black, clear-bottom 96-well plates (200 µL/well) after incubation. Freshly prepared PMA plus probe solutions in HBSS (5× concentrated, 50 µL/well) included PMA (5 µM) with CBA (500 µM) or with Amplex Red (250 µM) plus HRP (0.5 U/mL) for H2O2 detection, or with HE (50 µM) plus DNA (0.5 mg/mL) for O2^•− detection. Once probes + PMA were added, plates were sealed with sealing film and immediately placed in the pre-warmed plate readers (37 °C). Fluorescence intensities were monitored kinetically from the bottom of the plates every 1.3 min for a period of 2 h using Beckman Coulter (Brea, CA, USA) DTX880 and BMG Labtech (Ortenberg, Germany) FLUOstar Omega plate readers. DMSO alone and DPI (10 µM) were used as negative and positive controls, respectively. […] The IC50 values were determined using at least five independent measurements, each consisting of technical quadruplicates per concentration.

[2] = system: dHL60 cells; experiment: Cell Titer Glo 2.0 cytotoxicity (ATP) assay in PMA-stimulated dHL60 cells; assay type: cell-based, human
Experimental: The cytotoxicity of the inhibitors was tested by measuring the amount of ATP in the wells containing PMA-stimulated dHL60 cells and the candidate inhibitors. Cells were prepared as described for the plate reader-based measurements for H2O2, except that the cells were maintained with the inhibitors in a CO2-free incubator at 37 °C for 2.5 h to mirror the conditions during the fluorescence-based monitoring of H2O2 described above. After incubation, cells (100 µL/well) were transferred to white 96-well plates (Greiner, Kremsmünster, Austria), and the total cellular ATP amount was determined using the Cell Titer Glo 2.0 (Promega) cytotoxicity assay (100 µL/well) by measuring the luminescence intensity using a Beckman Coulter DTX880 plate reader.

Q: With `CN(C)CCCn1c(SCCc2c[nH]c3ccccc23)nc2ccc(F)cc2c1=O` [TG15-132] as the compound, how does the IC50 [1] read?
A: Its IC50 is 7.9 ± 3 µM.

Q: And the IC50 ([2]; Homo sapiens, Cell Titer Glo 2.0, PMA-stimulated dHL60 cells, 2.5 h with inhibitor, unit not printed in Table 3, taken from text, read-out: IC50, Viability Assay)?
A: Its IC50 is 34.5 ± 6 µM.

Q: And the “cell viability at concentrations showing Nox2 inhibitory potency” value ([2]; dHL60 cells, Figure 3D,E)?
A: The value was “no decrease in cell viability”.
